Source: patent US10561672B2, “Stable fixed dose pharmaceutical composition comprising mometasone and olopatadine” (GLENMARK SPECIALTY S.A., priority 2013, dated 2020)

Tests used:
[1] = Clinical trial, single-dose cross-over: pharmacokinetics of mometasone furoate (Example 6); type: in vivo; conditions: single dose nasal spray, human subjects
Text: (§1) The clinical trial was a randomized, single-center, single-dose, open-label, three-period, six-sequence, cross-over study to evaluate three treatments administered by nasal spray. […] The study consisted of a screening visit, 3 single-dose treatment periods with washout periods of 7 to 14 days between dosing in each treatment period, an early withdrawal visit if applicable, and a follow-up telephone call (or visit) 1 to 7 days after completing the third treatment period. A total of 30 subjects were randomized to 1 of 6 treatment sequences and received at least 1 dose of study drug. All 30 subjects were included in the safety analysis set and the pharmacokinetic subset. All but 2 subjects completed the study per protocol.

[2] = Clinical trial, single-dose cross-over: pharmacokinetics of olopatadine (Example 5); type: in vivo; conditions: single dose nasal spray, human subjects
Text: as §1, with “as a” for “by”

## C[C@@H]1C[C@H]2[C@@H]3CCC4=CC(=O)C=C[C@]4(C)[C@@]3(Cl)[C@@H](O)C[C@]2(C)[C@@]1(OC(=O)c1ccco1)C(=O)CCl [mometasone furoate]
[1]
  Quantifiable concentrations observed until the last time point: 72 h

## CN(C)CC/C=C1/c2ccccc2COc2ccc(CC(=O)O)cc21 [olopatadine]
[2]
  Quantifiable concentrations observed until the last time point: 48 h
